Results on 1 molecule are retold here after patent US20070281947A1, “Diarylmethylpiperazines As Prophylactic Or Therapeutic Agents For Viral Myocarditis” (priority 2002, published 2007).

The structures appear in SMILES notation. Marks after values point to notes of the source that are not given here.

Type in all cases: in vivo
The subject of test [1] is EMC virus. The experiment in a line: Effect on histopathological changes in heart muscle in a cardiac insufficiency model induced by EMC viral myocarditis in mice. The following applies: for Heart weight (g) (day 5) / Heart weight/body weight ratio (day 5): DBA/2 mice; for Heart weight (g) (day 5): EMC virus 1 pfu/mouse i.p.; for Heart weight/body weight ratio (day 5): EMC virus. The protocol: A comparative study was conducted on the effect of cetirizine on histopathological changes in heart muscle in a cardiac insufficiency model induced by EMC viral myocarditis in mice.
28-day-old, male DBA/2 mice were divided into three groups, and EMC virus was inoculated intraperitoneally to all groups at 1 pfu/mouse (day 0) in the same manner as Test Example 1.
Following inoculation, similar to Example 1, a control group given only distilled water to serve as a control (n=7), a cetirizine low dose group to which cetirizine was administered at a dose of 1 mg/kg/day (n=10), and a cetirizine high dose group to which cetirizine was administered at 10 mg/kg/day (n=7), were forcibly fed once a day using a cannula in the same manner as Test Example 1 for 5 consecutive days.
After five days, the hearts of the animals were removed, stained with hematoxylin-eosin stain after fixing with formalin, and scored for the two parameters of heart muscle cellular necrosis and inflammatory cellular invasion in the manner described below (documents such as Circulation 1999; 100; 1823-1829 can be referred to for further details regarding this formalin fixation, hematoxylin-eosin staining and scoring). The scores for heart muscle cellular necrosis and inflammatory cellular invasion were evaluated independently by two observers and then averaged. Statistical analysis was performed using the one way analysis of variance (ANOVA) and Fisher's protected least significant difference test (documents such as StatVien, SAS Institute Inc., Cary, N.C., U.S.A., 1998 can be referred to for further details regarding these statistical analysis methods).
1+: Lesions in 25% or less of heart
2+: Lesions in more than 25% to 50% of heart
3+: Lesions in more than 50% to 75% of heart
4+: Lesions in more than 75% to 100% of heart
Data consisting of heart weight, body weight, heart weight/body weight ratio, heart muscle cellular necrosis and inflammatory cellular invasion measured in accordance with that described above is summarized in Table 1 below. Furthermore, the previously described survival rate data and data relating to heart muscle interferon production to be described later are also shown in Table 1.

Test [2] has as its system EMC (encephalomyocarditis) virus. The test is described as follows: Effect on survival rate in a cardiac insufficiency model induced by EMC viral myocarditis in mice. The following applies: for Survival rate (day 14): DBA/2 mice, EMC virus 1 pfu/mouse i.p., n = 10, control 10%. The protocol:
A comparative study was conducted on the effect of cetirizine on survival rate in a cardiac insufficiency model induced by EMC (encephalomyocarditis) viral myocarditis in mice.
28-day-old, male DBA/2 mice were divided into three groups, and EMC virus that causes myocarditis was inoculated intraperitoneally to all groups at 1 pfu/mouse (0.1 ml as phosphate-buffered saline (PBS)) (day 0)(pfu means plaque forming unit). The EMC virus used here was acquired from ATCC (American Type Culture Collection, Manassas, Va., U.S.A.), and said EMC virus was used after diluting with PBS.
Following inoculation, a control group given only distilled water to serve as a control (n=10), a cetirizine low dose group to which cetirizine dissolved in distilled water was administered at a dose of 1 mg/kg/day (n=10), and a cetirizine high dose group to which cetirizine dissolved in distilled water was administered at 10 mg/kg/day (n=10), were forcibly fed once a day using a cannula (Wakenyaku Co., Ltd.) for 14 consecutive days.
The survival rates of the above three groups after 14 days were compared according to the Kaplan-Meier method (documents such as StatView, SAS Institute Inc., Cary, N.C., U.S.A. 1988 can be referred to for further details regarding this Kaplan-Meier method).
Data are obtained by analyzing the results obtained above according to the Kaplan-Meier method.

Test [3] has as its system EMC virus. The experiment in a line: Effect on intramyocardial cytokine production (ELISA) in a cardiac insufficiency model induced by EMC viral myocarditis in mice. Here is the method: A comparative study was conducted on the effect of cetirizine on cytokine production within heart muscle in a cardiac insufficiency model induced by EMC viral myocarditis in mice.
28-day-old, male DBA/2 mice were divided into three groups, and EMC virus was inoculated intraperitoneally to all groups at 1 pfu/mouse (day 0) in the same manner as Example 1.
Following inoculation, similar to Example 1, a control group given only distilled water to serve as a control (n=10), a cetirizine low dose group to which cetirizine was administered at a dose of 1 mg/kg/day (n=10), and a cetirizine high dose group to which cetirizine was administered at 10 mg/kg/day (n=10), were forcibly fed once a day using a cannula in the same manner as Test Example 1 for 7 consecutive days. […]
The protein concentration of each cytokine was measured by ELISA using a commercially available kit (Circulation, 100: 1102-1108, 1999). […]
The total protein concentration of each supernatant was measured by the bicinchoninic acid (BCA) method followed by calculation of the ratio of cytokine concentration to total protein concentration (J. Am. Coll. Cardiol., 33: 1400-1407, 1999). Each cytokine protein concentration was expressed as pg/mg of total protein or ng/mg of total protein. […]

[4] abbreviates: 1 mg/kg/day oral, 5 days, n = 10, mean ± SD.
The mark [5] stands for this setting: 10 mg/kg/day oral, 5 days, n = 7, mean ± SD.
Where [6] appears, read: score 0 to 4+ (share of heart with lesions), two observers averaged, 1 mg/kg/day oral, 5 days, n = 10, mean ± SD.

For `O=C(O)COCCN1CCN(C(c2ccccc2)c2ccc(Cl)cc2)CC1` (racemic) [Cetirizine, (±)-[2-[4-[(4-chlorophenyl)phenylmethyl]-1-piperazinyl]ethoxy]acetic acid], in the test with EMC virus [1] (1 and 10 mg/kg/day, day 5, dose-dependently), the “Histopathological changes of the heart (in words)” value is “trend of diminished inflammatory cell invasion and necrosis”. Besides, the “Heart weight (g) (day 5)” value came to 0.07 ± 0.008 g in the test on EMC virus [1] (setting [4]) and 0.60 ± 0.006 g in the test on EMC virus [1] (setting [5]). In addition, the “Heart weight/body weight ratio (day 5)” value in the test with EMC virus [1] (setting [4]) worked out at 5.4 ± 1.1; with EMC virus [1] (setting [5]), 5.1 ± 0.8. Besides, the “Heart muscle cellular necrosis (day 5)” value in the test on EMC virus [1] (setting [6]) is listed as 1.8 ± 1.0. Besides, the “Inflammatory cellular invasion (day 5)” value in the test with EMC virus [1] (setting [6]) is listed as 2.3 ± 0.8. The “Effect on survival rate (in words)” value in test [2] (1 and 10 mg/kg/day, 14 days, Kaplan-Meier, p<0.05) is recorded as “improved concentration-dependently”. Besides, the “Survival rate (day 14)” value in test [2] (1 mg/kg/day oral, 14 days, 1 mg/kg/day) was 40% (4/10); in test [2] (1 mg/kg/day oral, 14 days, listed as cetirizine, 1 mg/kg/day) it was 40%; in test [2] (10 mg/kg/day oral, 14 days, p < 0.05 vs. control, 10 mg/kg/day) it was 50% (5/10)*; in test [2] (10 mg/kg/day oral, 14 days, p < 0.05 vs. control, listed as cetirizine, 10 mg/kg/day) it was 50%. Also, in test [2] (summary of Examples 1 and 2: improved mortality rate of mice and viral myocarditis), the “Overall efficacy against EMC viral infection / viral myocarditis (in words)” value was “effective against viral infection”. Besides, in the test with EMC virus [3] (7 days after virus inoculation, 1 and 10 mg/kg/day), the “Intramyocardial IFN-γ (in words)” value is “concentration-dependent increase”. In the test on EMC virus [3] (ELISA of ventricle homogenate, relative to total protein, 1 mg/kg/day oral, 7 days, n = 10, mean ± SD, p < 0.05 vs. control), the “Heart muscle interferon-γ (day 7)” value amounted to 2.2 ± 1.0.
